Assay results: PubChem BioAssay (NCI)
Several values for one entry are separate records, joined by “and”; a condition that tells them apart may be missing. Equal entries are not always repeated.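 Cells were grown in 96-well plates and exposed to each compound for 48 hours at five concentrations; endpoints were interpolated linearly between bracketing concentrations, or set to the highest concentration if not reached. Here, GI50 denotes the concentration required for 50% inhibition of growth. The concentration for full growth arrest is given as TGI.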

Columns and labels:
Experiment in all cases: DTP human tumour cell line panel, 48 h
SNB-75 CNS = system: SNB-75 CNS
PC-3 prostate = system: PC-3 prostate
U251 CNS = system: U251 CNS
MOLT-4 leukemia = system: MOLT-4 leukemia
DU-145 prostate = system: DU-145 prostate
RPMI-8226 leukemia = system: RPMI-8226 leukemia
OVCAR-8 ovarian = system: OVCAR-8 ovarian
HOP-62 NSCLC = system: HOP-62 NSCLC
MDA-MB-231 breast = system: MDA-MB-231 breast
NCI-H23 lung = system: NCI-H23 lung

SMILES	GI50 (SNB-75 CNS)	TGI (SNB-75 CNS)	GI50 (PC-3 prostate)	TGI (PC-3 prostate)	GI50 (U251 CNS)	TGI (U251 CNS)	GI50 (MOLT-4 leukemia)	TGI (MOLT-4 leukemia)	GI50 (DU-145 prostate)	TGI (DU-145 prostate)	GI50 (RPMI-8226 leukemia)	TGI (RPMI-8226 leukemia)	GI50 (OVCAR-8 ovarian)	TGI (OVCAR-8 ovarian)	GI50 (HOP-62 NSCLC)	TGI (HOP-62 NSCLC)	GI50 (MDA-MB-231 breast)	TGI (MDA-MB-231 breast)	GI50 (NCI-H23 lung)	TGI (NCI-H23 lung)
CCOC(=O)C#Cc1c(CC(=O)OCC)nnn1[C@H]1O[C@@H](CO)[C@@H]2OC(C)(C)O[C@@H]21	10.7 µM	22.9 µM	16.1 µM	31 µM	14 µM	27.6 µM	2.79 µM	7.73 µM	10.2 µM	21.8 µM	3.45 µM	9.06 µM	5.48 µM	18.2 µM	18.2 µM	34.2 µM	4.62 µM	16.1 µM	13.6 µM	30.5 µM
O=C1C(=O)c2ccccc2C(O)=C1CCCCCCCCC1CCCCC1	–	22.9 µM	–	19.5 µM	–	17.8 µM	–	12.3 µM	–	33.4 µM	–	56.7 µM	–	29.5 µM	–	36.7 µM	–	17.3 µM	–	14.5 µM
Cc1ccc(S(=O)(=O)Nc2nc3ccccc3nc2Nc2ccc3nsnc3c2)cc1	8.81 µM and 3.89 µM	> 100 µM	3.22 µM and 2.91 µM	> 100 µM	3.26 µM and 3.65 µM	> 100 µM	4.3 µM and 3.61 µM	34.9 µM and > 100 µM	5.04 µM and 4.45 µM	> 100 µM	0.85 µM and 2.64 µM	21.2 µM and > 100 µM	4.3 µM and 4.19 µM	> 100 µM	5.36 µM and 5.68 µM	35.6 µM and > 100 µM	6.58 µM and 7.37 µM	26.6 µM and > 100 µM	2.78 µM and 2.93 µM	44.5 µM and > 100 µM
CCCCCN(CCCCC)CC(O)c1cc2c(c3ccccc13)CCCC2 (stereo not given)	10.4 µM and 11.9 µM	22.7 µM and 25.1 µM	5.14 µM and 5.62 µM	21.6 µM and 20.9 µM	6.33 µM and 11.5 µM	20.3 µM and 29.6 µM	2.95 µM and 26.4 µM	13 µM and > 100 µM	10.1 µM and 21.4 µM	21.7 µM and 48.1 µM	2.41 µM and 1.5 µM	7.39 µM and 9.18 µM	11.3 µM and 14.9 µM	26.1 µM and 32.9 µM	3.62 µM and 12.1 µM	12.9 µM and 25.7 µM	3.01 µM and 7.04 µM	10.5 µM and 21.4 µM	3.72 µM and 5.94 µM	14.7 µM and 24.6 µM
CN1CCn2c(c(Sc3ccc(C(=O)NO)cc3)c3ccccc32)C1=O	1.27 µM	2.99 µM	1.96 µM	4.57 µM	1.79 µM	4 µM	2.87 µM	> 33.8 µM	2.97 µM	12.8 µM	1.24 µM	> 24.5 µM	1.92 µM	6.71 µM	1.88 µM	3.87 µM	2.13 µM	5.09 µM	1.35 µM	4.36 µM
Clc1ccc2c(c1)-c1ccccc1C1=NCCN12	1.62 µM	5.42 µM	2.03 µM	6.83 µM	1.98 µM	7.14 µM	1.01 µM	3.11 µM	2.02 µM	4.62 µM	1.91 µM	4.36 µM	1.22 µM	5.4 µM	1.98 µM	6.02 µM	2.69 µM	12.4 µM	1.85 µM	4.75 µM
O=C(CN1C(=O)c2ccccc2C1=O)C(O)CN1C(=O)c2ccccc2C1=O (stereo not given)	–	39.8 µM	–	> 100 µM	–	91.5 µM	–	> 100 µM	–	> 100 µM	–	> 100 µM	–	> 100 µM	–	41.9 µM	–	50.5 µM	–	> 100 µM
N#Cc1nc2cc(F)c(F)cc2nc1-c1ccc(Cl)cc1	33.1 µM	83.1 µM	4.27 µM	20.2 µM	10.4 µM	25 µM	3.21 µM	> 28.3 µM	22.4 µM	> 82.6 µM	6.17 µM	> 100 µM	2.09 µM	4.76 µM	45 µM	> 100 µM	–	5.3 µM	7.92 µM	33.9 µM
Oc1ccc(N=Nc2ccc(N=Nc3ccccc3)cc2)cc1	9.84 µM	47.8 µM	2.83 µM	16.8 µM	10.4 µM	26.9 µM	0.351 µM	11.9 µM	2.09 µM	12.2 µM	2.15 µM	16 µM	3.2 µM	24.2 µM	2.7 µM	9.05 µM	2.5 µM	7.09 µM	4.1 µM	19.5 µM
Clc1nc(Cl)c(Cc2ccccc2)c(Cl)n1	–	22.5 µM	–	44.5 µM	–	33.8 µM	–	> 100 µM	–	28.7 µM	–	> 100 µM	–	19 µM	–	20.4 µM	–	14.9 µM	–	37.5 µM
Cc1nn(-c2nc3ccccc3[nH]2)c2c1C(c1ccc3c(c1)OCO3)CC(=O)N2 (stereo not given)	2.69 µM	8.09 µM	3.16 µM	22 µM	2.14 µM	4.79 µM	0.0422 µM	0.214 µM	3.23 µM	9.12 µM	2.22 µM	5.02 µM	3.51 µM	> 100 µM	2.38 µM	5.21 µM	2.18 µM	5.22 µM	2.13 µM	4.72 µM
NCCCCN(Cc1nc2ccccc2[nH]1)[C@H]1CCCc2cccnc21	8.53 µM	> 100 µM	5.52 µM	> 93.2 µM	11.3 µM	> 67.8 µM	17.5 µM	69.4 µM	29.2 µM	> 100 µM	12 µM	47.6 µM	20 µM	> 100 µM	11.4 µM	> 100 µM	8.88 µM	56.3 µM	20.4 µM	> 100 µM
C/C=C/C=C\C1OC(O)([C@H](CC)C(=O)NC/C=C/C=C(\C)[C@H](OC)C(C)C2OC(\C=C/C=C/C=C(\C)C(=O)c3c(O)ccn(C)c3=O)[C@H](O)[C@@H]2O)C(O)C(O)C1(C)C (stereo not given in full)	–	> 100 µM	–	> 100 µM	–	> 100 µM	–	> 100 µM	–	> 100 µM	–	> 100 µM	–	> 100 µM	–	> 100 µM	–	> 100 µM	–	> 100 µM
CS(=O)(=O)Nc1cc(-c2ccc3ncnc(Nc4ccc5c(cnn5Cc5ccccc5F)c4)c3c2)cnc1Cl	0.157 µM	2.4 µM	1.31 µM	> 23.6 µM	2.11 µM	14.4 µM	1.54 µM	7.48 µM	2 µM	> 38.2 µM	1.64 µM	4.18 µM	2.72 µM	> 100 µM	0.457 µM	> 100 µM	1.51 µM	> 100 µM	2.81 µM	> 100 µM
O=Cc1ccc(O)c2ncccc12	16.9 µM	> 82.4 µM	4.01 µM	> 46.6 µM	2.4 µM	23.3 µM	–	> 38.8 µM	7.28 µM	32.1 µM	2.2 µM	15.8 µM	3.28 µM	> 100 µM	5.59 µM	45.3 µM	4.21 µM	> 100 µM	3.42 µM	> 55.8 µM
CN(C)c1ccc(O)c2c1C[C@H]1C[C@H]3[C@H](N(C)C)C(=O)C(C(N)=O)=C(O)[C@@]3(O)C(=O)C1=C2O	4.88 µM	68.7 µM	6.61 µM	93.2 µM	4.5 µM	57.1 µM	10.7 µM	40.6 µM	5.07 µM	73.6 µM	4.28 µM	31.1 µM	5.11 µM	> 100 µM	4.01 µM	71.5 µM	10.5 µM	43.6 µM	4.95 µM	39.7 µM
COc1cccc2c(=O)c3c(sc12)c(NCCN(C)C)nc1ccccc13	1.47 µM	8.53 µM	1.34 µM	3.03 µM	1.29 µM	2.74 µM	0.398 µM	1.66 µM	1.68 µM	3.17 µM	1.36 µM	3.17 µM	1.26 µM	2.93 µM	1.2 µM	2.66 µM	1.34 µM	2.87 µM	1.51 µM	3.16 µM
COc1cc(/C=C/C(=O)c2c(C)n([O-])c3ccc(Cl)cc3[n+]2=O)cc(OC)c1OC	17.3 µM	40.6 µM	27.5 µM	> 100 µM	34.4 µM	> 100 µM	> 100 µM	> 100 µM	21.7 µM	> 100 µM	> 100 µM	> 100 µM	11.8 µM	33.4 µM	60.2 µM	> 100 µM	14.7 µM	96.6 µM	50.5 µM	> 100 µM
O=C(NCP(=O)(O)O)c1cccnc1	–	> 100 µM	–	> 100 µM	–	> 100 µM	–	> 100 µM	–	> 100 µM	–	> 100 µM	–	> 100 µM	–	> 100 µM	–	> 100 µM	–	> 100 µM
O=C(CCCCCCC(=O)Nc1ccc2c(c1)/C(=C/c1ccc[nH]1)C(=O)N2)NO	0.194 µM	65.4 µM	0.851 µM	> 100 µM	0.416 µM	2.29 µM	0.289 µM	> 100 µM	0.969 µM	41.6 µM	2.9 µM	> 100 µM	0.472 µM	> 89.4 µM	0.353 µM	4.49 µM	0.991 µM	10 µM	1.88 µM	14.8 µM
COc1ccc2nc(C)cc(Nc3ccccc3O)c2c1	69.9 µM	> 100 µM	29.9 µM	> 100 µM	17.6 µM	35.3 µM	24.8 µM	78.6 µM	45.3 µM	> 100 µM	17.2 µM	51.4 µM	24.8 µM	69.7 µM	49.3 µM	> 100 µM	27.9 µM	> 100 µM	38.5 µM	> 100 µM
COC(=O)[C@@]1(O)C[C@H]2O[C@]1(C)n1c3ccccc3c3c4c(c5c6ccccc6n2c5c31)C(=O)NC4	0.185 µM	1.04 µM	0.251 µM	2.95 µM	1.02 µM	3.05 µM	0.0678 µM	0.825 µM	0.161 µM	5.9 µM	0.0784 µM	1.33 µM	0.589 µM	4.08 µM	0.169 µM	1.81 µM	0.429 µM	2.88 µM	0.212 µM	2.36 µM
O=P1(O)c2ccccc2Nc2cc(C(F)(F)F)ccc21	–	> 100 µM	–	> 100 µM	–	> 100 µM	–	> 100 µM	–	> 100 µM	–	> 100 µM	–	> 100 µM	–	> 100 µM	–	> 100 µM	–	> 100 µM
CNc1nc(N(C)C)nc(N(C)C)n1	> 100 µM and 473 µM	> 100 µM and 1980 µM	–	3960 µM	> 100 µM and 1150 µM	> 100 µM and 2950 µM	> 100 µM and 1810 µM	> 100 µM and 7060 µM	–	5040 µM	> 100 µM and 1500 µM	> 100 µM and 2940 µM	> 100 µM and 1780 µM	> 100 µM and 2950 µM	> 100 µM and 970 µM	> 100 µM and 1890 µM	–	2640 µM	> 100 µM and 650 µM	> 100 µM and 1830 µM
CCCCCCCCCCCC[n+]1ccc(C(N)=O)cc1	2.08 µM	6.61 µM	0.71 µM	3.55 µM	1.14 µM	3.55 µM	3.29 µM	> 100 µM	4.6 µM	17.2 µM	1.34 µM	4.86 µM	3.34 µM	13.1 µM	2.84 µM	10.2 µM	2.91 µM	10.9 µM	2.81 µM	14 µM
O=C(/C=C/c1ccc(C(F)(F)F)cc1)c1ccc(Nc2nc(NCCO)nc(N3CCOCC3)n2)cc1	1.84 µM	7.9 µM	2.24 µM	7.83 µM	1.63 µM	3.38 µM	2.45 µM	9.05 µM	2.19 µM	4.58 µM	2.07 µM	5.71 µM	3.25 µM	12.4 µM	2.22 µM	6.57 µM	2.69 µM	9.74 µM	2.55 µM	6.97 µM
COc1ccc2c(c1)OC(N)=C(C#N)C2c1ccc(F)cc1 (stereo not given)	1.4 µM	13.3 µM	3.09 µM	99 µM	3.08 µM	> 100 µM	1.32 µM	> 100 µM	3.05 µM	> 100 µM	2.43 µM	19.9 µM	4.49 µM	> 100 µM	0.986 µM	> 100 µM	3.09 µM	97.5 µM	4.03 µM	> 100 µM
